Data on four compounds can be found in US6900202B2, “Di-substituted imineheterocyclic compounds” (priority 2000, dated 2005).

In the experiment the target is T1, human α4β2 subtype of nicotinic acetylcholine receptors (Homo sapiens, UniProt P17787+P43681).
T1 construct: expressed in transfected cells; host or cells: Xenopus laevis oocytes injected with hnACh-R α4 and β2 cRNA (pSP64 polyA vector)
T1 sequence (P43681 29-627 limits assumed): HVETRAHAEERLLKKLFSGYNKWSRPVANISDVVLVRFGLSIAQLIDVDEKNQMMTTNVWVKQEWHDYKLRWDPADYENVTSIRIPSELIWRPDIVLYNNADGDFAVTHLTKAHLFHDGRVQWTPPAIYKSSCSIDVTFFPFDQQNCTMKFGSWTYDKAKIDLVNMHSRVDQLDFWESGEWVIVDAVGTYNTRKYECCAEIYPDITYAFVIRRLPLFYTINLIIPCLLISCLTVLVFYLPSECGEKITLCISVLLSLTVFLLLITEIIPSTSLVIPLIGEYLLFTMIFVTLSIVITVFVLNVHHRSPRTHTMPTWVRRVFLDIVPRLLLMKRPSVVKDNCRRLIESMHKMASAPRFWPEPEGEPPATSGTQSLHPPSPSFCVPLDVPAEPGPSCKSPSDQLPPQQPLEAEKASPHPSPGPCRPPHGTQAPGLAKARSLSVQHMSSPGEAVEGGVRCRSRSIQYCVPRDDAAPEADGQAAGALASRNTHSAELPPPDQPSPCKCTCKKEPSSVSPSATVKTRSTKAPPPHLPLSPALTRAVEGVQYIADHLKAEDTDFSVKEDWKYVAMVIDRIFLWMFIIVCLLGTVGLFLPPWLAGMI
T1 sequence (P17787 26-502): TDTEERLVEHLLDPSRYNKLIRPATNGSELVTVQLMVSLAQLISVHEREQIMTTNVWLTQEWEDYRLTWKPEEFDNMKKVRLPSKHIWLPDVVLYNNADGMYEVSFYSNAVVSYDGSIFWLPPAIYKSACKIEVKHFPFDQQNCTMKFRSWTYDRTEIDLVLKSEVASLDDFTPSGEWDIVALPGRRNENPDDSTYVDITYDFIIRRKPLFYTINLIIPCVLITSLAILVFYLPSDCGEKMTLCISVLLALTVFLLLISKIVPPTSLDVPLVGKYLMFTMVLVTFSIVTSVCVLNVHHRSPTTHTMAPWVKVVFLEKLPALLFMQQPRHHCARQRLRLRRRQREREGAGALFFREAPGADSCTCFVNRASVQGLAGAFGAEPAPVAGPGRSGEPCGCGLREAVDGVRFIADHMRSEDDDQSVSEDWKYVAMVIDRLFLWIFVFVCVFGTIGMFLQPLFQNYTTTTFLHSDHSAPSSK
The class given is cell-based. To be noted: response at 100 μM test compound, in comparison with response at 10 μM acetylcholine (100%); oocytes held at −50 mV. Here is the method: The agonist effect in human α4β2 subtype of nicotinic acetylcholine receptors are examined by using human nicotinic acetylcholine receptors prepared in oocytes of Xenopus laevis, which is injected with cRNA from the corresponding cloning cDNA of human α4 and β2 subunits of nicotinic acetylcholine receptors, and to measure the expression of the electric response by adding the test compounds to perfusion solution by means of membrane potential holding method.
Agonist Activities at Human α4β2 Subtype of Nicotinic Acetylcholine Receptors
The agonist activities of the compounds of the present invention at human α4β2 subtype of nicotinic acetylcholine receptors was evaluated by the following method, which was modified method described by Papke R. L., Thinschmidt J. S., Moulton B. A., Meyer E. M. & Poirier A., Br. J. Pharmacol., 120, 429-438 (1997).
(1) Preparation of cRNA of Human α4β2 Subtype of Nicotinic Acetylcholine Receptors
The cloning of human nicotinic acetylcholine receptor (hnACh-R) α4 cDNA and hnAC-R β2 cDNA were performed, in accordance with the conventional manners, by synthesizing the each DNA primers corresponding to the sequences of hnACh-R α4 cDNA and hnACh-R β2 cDNA [Monteggia L. M. et al., Gene, 155, 189-193 (1995); and Anand R., & Lindstrom J., Nucl. Acids Res., 18, 4272 (1990)], and obtained hnACh-R α4 cDNA and hnACh-R β2 cDNA by polymerase chain reaction (PCR), respectively. The obtained hnACh-R α4 cDNA and hnACh-R β2 cDNA were inserted to the cRNA expression vector (pSP64 polyA) having SP6 RNA promoter to construct hnACh-R α4/pSP64 polyA and hnACh-R β2/pSP64 polyA, respectively. After cutting from expression vector by restriction enzyme (EcoRI), transcription was performed by affecting SP6 RNA polymerase in the presence of cap analogues to obtain hnACh-R α4 cRNA and hnACh-R β2 cRNA, respectively.
(2) Expression of Human α4β2 Subtype Nicotinic Acetylcholine Receptors in Xenopus Oocytes
Oocytes were purchased from Kitanihonseibustukyohzai Co., Ltd., which were already enucleated from Xenopus laevis, and used in this experiment.
The oocytes were treated with collagenase (Sigma type I; 1 mg/ml) in calcium-free modified Birth's solution (88 mM of NaCl, 1 mM of KCl, 2.4 mM of NaHCO3, 0.82 mM of MgSO4, 15 mM of HEPES, pH 7.6) under gently stirring at the room temperature for 90 minutes, and washed out the enzyme from the tissue. Then, oocytes were separated from ovarian follicle by tweezers, and isolated oocytes were placed in antibiotics containing modified Birth's solution (88 mM of NaCl, 1 mM of KCl, 2.4 mM of NaHCO3, 0.82 mM of MgSO4, 15 mM of HEPES, pH 7.6, and 0.1 v/v % of mixture solution containing of penicillin and streptomycin for incubation; Sigma Co.). Thus treated oocytes were injected with 50 nl of adjusted cRNAs (1.0 mg/ml), that is, each 50 ng of hnACh-R α4 cRNA and hnACh-R β2 cRNA per 1 oocyte by using automatic injector (NANOJECT; DRUMMOND […] CO.), and further incubated for 4-14 days at 19° C. In oocytes, heterogeneous quintuple [(α4)2(β2)3] was composed by translation of injected cRNAs, and ion channel receptors were constructed on cell membrane.
(3) Agonist Activities at Human α4β2 Subtype of Nicotinic Acetylcholine Receptors
The recordings of responses at human α4β2 subtype of nicotinic acetylcholine receptors by means of membrane potential holding method were performed as follow. […] Test compounds were added to the perfusion solution, and recorded the peak strength of induced inward electric current. […]
As for `Cn1ccn(Cc2ccc(Cl)nc2)c1=N` [Compound 13, 1-(6-chloro-3-pyridyl)methyl-2-imino-3-methyl-2,3-dihydroimidazole], the Agonist effect amounted to 5%.

`Clc1ccc(C/N=c2\sccn2Cc2ccc(Cl)nc2)cn1` [Compound 8, 3-(6-chloro-3-pyridyl)methyl-2-[(6-chloro-3-pyridyl)methyl]imino-2,3-dihydrothiazole] registered an Agonist effect of 11%.

On to `Clc1ccc(C/N=C2\SCCN2Cc2ccc(Cl)nc2)cn1` [Compound 1, 3-(6-chloro-3-pyridyl)methyl-2-[(6-chloro-3-pyridyl)methyl]iminothiazolidine], for which the Agonist effect is listed as 6%.

In turn, `Clc1ccc(C/N=C2\OCCCN2Cc2ccc(Cl)nc2)cn1` [Compound 2, 3-(6-chloro-3-pyridyl)methyl-2-[(6-chloro-3-pyridyl)-methyl]imino-3,4,5,6-tetrahydro-2H-1,3-oxazine] gave an Agonist effect of 27%.
